Like-named read-outs stand apart in the source and are kept apart here. Bridge positions count the residues as written; N and C are the ends. Square brackets hold non-standard residues; d marks the D form. Ends that are not written are not given here. Peptide text beside a SMILES is read from it. I, II: the chains in the order shown.
Assays:
[1] = molecular target: T1, VLA-4 integrin interaction with VCAM-1 (Homo sapiens, UniProt P05556+P13612); experiment: Jurkat interaction with soluble VCAM-1 (sVCAM-1-IgG), FACS assay; format: cell-based
T1 construct: endogenous in cells; host or cells: Jurkat cells (VLA-4)
Description: VCAM-1 was expressed as a soluble fusion protein. The construct expressed the seven extracellular domains of VCAM-1 on the N-terminus, and the human IgG1 heavy chain constant region on the C-terminus. Interaction of the soluble construct with Jurkat cells was monitored by standard FACS analysis, using a fluorescently labeled antibody directed against the construct's human IgG tail as a marker.
The activity of VLA-4 can be regulated. 15/7 is a monoclonal antibody that recognizes an activated conformation of VLA-4 and locks the molecule in the active state, thereby enhancing VLA-4-mediated cell adhesion.
Peptides of different length, and with various amino acid substitutions were synthesized based on the sequence of the CDR3 region of the antibody 21/6 (EGYYGNYGVYA) (SEQ ID No. 4). The peptides were then tested for their ability to inhibit Jurkat interaction with sVCAM-1-IgG in the FACS assay described in Example 6. IC50 values were determined for each peptide using this assay.

[2] = molecular target: T2, VLA-4 integrin (Homo sapiens, UniProt P05556+P13612); experiment: Adhesion of Jurkat cells to peptide-BSA conjugates; format: cell-based; settings: peptide conjugated to carrier protein, coated on plastic at 3 μg/mL; FIG. 1
T2 construct: endogenous in cells; host or cells: Jurkat cells
Method: The peptide used in this example was synthesized based on the sequence of the anti-α4 integrin antibody 21/6 (CGGEGYYGNYGVYA, SEQ ID No. 1). In this example the peptide was conjugated to a large carrier protein via the linker region that was synthesized as part of the peptide itself (in italics). The conjugated peptide was then coated onto plastic, and the ability of the conjugate to support cell adhesion was tested. This method is based on a report by Wayner and Kovach^40.
As a positive control, the fibronectin peptide described by Wayner was synthesized, conjugated to carrier protein, and tested for cell adhesion in parallel with SEQ ID NO. 1 (CGGEILDVPST, SEQ ID No. 2). Both peptide conjugates were exposed to the plastic at a concentration of 3 μg/mL. […] Adhesion was not affected by an antibody against β2 integrin (IOT18), a distinct cell adhesion molecule that is also expressed on the surface of Jurkat cells. Thus, like peptide SEQ ID NO. 2, peptide SEQ ID NO. 1 interacts with Jurkat in an α4 integrin-specific fashion.

[3] = per Example 6: inhibition of Jurkat interaction with sVCAM-1-IgG, FACS, Mn+2 and 15/7 present, read-out: IC50

T1 sequence (P13612 34-1032): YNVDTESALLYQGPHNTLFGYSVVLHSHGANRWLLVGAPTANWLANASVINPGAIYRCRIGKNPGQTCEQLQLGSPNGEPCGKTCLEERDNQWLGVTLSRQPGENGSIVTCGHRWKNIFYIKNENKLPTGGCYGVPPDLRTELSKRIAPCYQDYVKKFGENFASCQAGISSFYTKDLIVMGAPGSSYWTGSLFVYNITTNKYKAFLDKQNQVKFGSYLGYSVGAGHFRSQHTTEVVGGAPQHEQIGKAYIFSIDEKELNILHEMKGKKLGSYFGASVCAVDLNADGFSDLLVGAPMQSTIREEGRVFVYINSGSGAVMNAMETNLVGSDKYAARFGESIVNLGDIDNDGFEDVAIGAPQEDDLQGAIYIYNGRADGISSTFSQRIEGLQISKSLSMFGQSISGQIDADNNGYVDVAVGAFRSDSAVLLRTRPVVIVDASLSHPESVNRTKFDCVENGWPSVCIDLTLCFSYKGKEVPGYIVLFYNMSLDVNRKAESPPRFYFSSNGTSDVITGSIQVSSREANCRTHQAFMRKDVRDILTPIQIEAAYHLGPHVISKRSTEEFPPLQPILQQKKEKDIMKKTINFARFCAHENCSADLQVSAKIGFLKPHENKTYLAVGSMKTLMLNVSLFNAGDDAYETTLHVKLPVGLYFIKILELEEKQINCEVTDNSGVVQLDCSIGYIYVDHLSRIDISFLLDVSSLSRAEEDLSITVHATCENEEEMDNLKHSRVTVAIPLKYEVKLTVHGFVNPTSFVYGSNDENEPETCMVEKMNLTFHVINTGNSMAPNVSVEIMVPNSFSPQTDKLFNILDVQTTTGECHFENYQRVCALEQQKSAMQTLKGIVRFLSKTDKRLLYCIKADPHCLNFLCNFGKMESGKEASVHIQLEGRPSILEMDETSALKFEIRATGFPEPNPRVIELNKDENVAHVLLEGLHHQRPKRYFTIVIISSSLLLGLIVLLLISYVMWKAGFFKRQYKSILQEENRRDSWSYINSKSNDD
T1 sequence (P05556 21-798): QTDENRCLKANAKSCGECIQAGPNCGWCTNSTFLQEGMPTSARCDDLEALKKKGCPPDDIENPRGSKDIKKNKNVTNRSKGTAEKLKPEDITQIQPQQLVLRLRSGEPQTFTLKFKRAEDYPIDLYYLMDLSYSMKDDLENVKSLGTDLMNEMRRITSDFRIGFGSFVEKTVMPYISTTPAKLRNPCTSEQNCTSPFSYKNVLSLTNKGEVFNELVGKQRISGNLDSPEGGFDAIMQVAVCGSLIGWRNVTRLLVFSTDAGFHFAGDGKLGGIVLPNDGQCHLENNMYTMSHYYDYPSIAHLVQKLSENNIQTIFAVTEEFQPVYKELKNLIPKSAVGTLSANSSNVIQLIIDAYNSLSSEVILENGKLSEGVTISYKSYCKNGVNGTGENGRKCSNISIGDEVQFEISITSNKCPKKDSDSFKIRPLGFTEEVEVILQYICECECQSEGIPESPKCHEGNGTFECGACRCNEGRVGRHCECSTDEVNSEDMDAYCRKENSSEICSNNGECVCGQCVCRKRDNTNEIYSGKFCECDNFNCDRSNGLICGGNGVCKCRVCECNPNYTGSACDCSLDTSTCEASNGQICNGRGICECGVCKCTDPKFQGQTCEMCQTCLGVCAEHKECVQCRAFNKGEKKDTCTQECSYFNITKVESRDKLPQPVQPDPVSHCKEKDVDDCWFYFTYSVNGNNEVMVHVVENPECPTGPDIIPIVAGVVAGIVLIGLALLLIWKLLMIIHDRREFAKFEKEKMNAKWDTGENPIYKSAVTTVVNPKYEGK
T2 sequence (P13612 34-1032): as the sequence (P13612 34-1032) above
T2 sequence (P05556 21-798): as the sequence (P05556 21-798) above

Row | Compound | IC50 [1] [µM] | also measured
1 | NC(=O)C[C@@H]1NC(=O)CNC(=O)[C@H](Cc2ccccc2)NC(=O)CNC(=O)[C@@H](N)CSSC[C@@H](C(=O)O)NC(=O)[C@H](Cc2ccc(O)cc2)NC(=O)[C@H](CO)NC(=O)[C@H](Cc2c[nH]cn2)NC(=O)[C@H](CCC(=O)O)NC1=O [SEQ ID No. 31, CGFGNEHSYC] (H-CGFGNEHSYC-OH; disulfide 1-10) | ≤ 50 | –
2 | NC(=O)C[C@@H]1NC(=O)CNC(=O)[C@H](Cc2ccccc2)NC(=O)[C@@H](N)CSSC[C@@H](C(=O)O)NC(=O)[C@H](CO)NC(=O)[C@H](Cc2c[nH]cn2)NC(=O)[C@H](CCC(=O)O)NC1=O [SEQ ID No. 32, CFGNEHSC] (H-CFGNEHSC-OH; disulfide 1-8) | ≤ 50 | –
3 | CC[C@H](C)[C@@H]1NC(=O)[C@H](CCC(N)=O)NC(=O)[C@H]([C@@H](C)O)NC(=O)[C@H](CCCNC(=N)N)NC(=O)[C@@H](N)CSSC[C@@H](C(=O)O)NC(=O)[C@H](CO)NC(=O)[C@H](CC(=O)O)NC1=O [SEQ ID No. 35, CRTQIDSC] (H-CRTQIDSC-OH; disulfide 1-8) | – | IC50 [1, 3]: ≤ 50 µM
4 | NC(=O)CC[C@@H]1NC(=O)CNC(=O)[C@H](Cc2ccc(O)cc2)NC(=O)[C@H](Cc2ccc(O)cc2)NC(=O)CSC[C@@H](C(=O)O)NC1=O [SEQ ID No. 52, [Ac]YYGQC] ({CH2CO}-YYGQC-OH; thioether N-5) | ≤ 50 | –
5 | C[C@@H]1NC(=O)CNC(=O)[C@H](Cc2ccc(O)cc2)NC(=O)[C@H](Cc2ccc(O)cc2)NC(=O)CSC[C@@H](C(=O)O)NC1=O [SEQ ID No. 54, [Ac]YYGAC] ({CH2CO}-YYGAC-OH; thioether N-5) | ≤ 50 | –
6 | NC(=O)C[C@@H]1NC(=O)[C@H](CCC(=O)O)NC(=O)[C@H](Cc2ccc(O)cc2)NC(=O)[C@H](Cc2ccc(O)cc2)NC(=O)CSC[C@@H](C(=O)O)NC1=O [SEQ ID No. 60, [Ac]YYENC] ({CH2CO}-YYENC-OH; thioether N-5) | ≤ 50 | –
7 | NC(=O)C[C@@H]1NC(=O)[C@H](Cc2ccc(O)cc2)NC(=O)CNC(=O)[C@H](Cc2ccc(O)cc2)NC(=O)[C@H](Cc2ccc(O)cc2)NC(=O)CSC[C@@H](C(=O)O)NC1=O [SEQ ID No. 62, [Ac]YYGYNC] ({CH2CO}-YYGYNC-OH; thioether N-6) | ≤ 50 | –
8 | C[C@H](N)C(=O)N[C@@H](Cc1ccc(O)cc1)C(=O)N[C@@H](Cc1ccccc1)C(=O)NCC(=O)N1CCC[C@H]1C(=O)N[C@@H](CSSC[C@H](NC(=O)[C@@H]1CCCN1C(=O)CNC(=O)[C@H](Cc1ccccc1)NC(=O)[C@H](Cc1ccc(O)cc1)NC(=O)[C@H](C)N)C(=O)O)C(=O)O [SEQ ID No. 71, AYFGPC AYFGPC] (I: H-AYFGPC-OH / II: H-AYFGPC-OH; disulfide I:6-II:6) | ≤ 50 | –
9 | CC(C)C[C@H]1NC(=O)CSC[C@@H](C(=O)O)NC(=O)[C@H](CC(N)=O)NC(=O)CNC(=O)[C@H](Cc2ccccc2)NC1=O [SEQ ID No. 94, [Ac]lFGNC] ({CH2CO}-[dL]FGNC-OH; thioether N-5) | ≤ 50 | –
10 | CC(C)[C@H]1NC(=O)CSC[C@@H](C(=O)O)NC(=O)[C@H](CC(N)=O)NC(=O)CNC(=O)[C@H](Cc2ccccc2)NC1=O [SEQ ID No. 96, [Ac]vFGNC] ({CH2CO}-[dV]FGNC-OH; thioether N-5) | ≤ 50 | –
11 | C[C@H](N)C(=O)N[C@@H](Cc1ccc(O)cc1)C(=O)N[C@@H](Cc1ccc(O)cc1)C(=O)N[C@@H](CCC(=O)O)C(=O)N[C@@H](CC(N)=O)C(=O)N[C@@H](CSSC[C@H](NC(=O)[C@H](CC(N)=O)NC(=O)[C@H](CCC(=O)O)NC(=O)[C@H](Cc1ccc(O)cc1)NC(=O)[C@H](Cc1ccc(O)cc1)NC(=O)[C@H](C)N)C(=O)O)C(=O)O [SEQ ID No. 123, AYYENC AYYENC] (I: H-AYYENC-OH / II: H-AYYENC-OH; disulfide I:6-II:6) | ≤ 50 | –
12 | NC(=O)C[C@H](NC(=O)[C@H](CCC(=O)O)NC(=O)[C@H](Cc1ccc(O)cc1)NC(=O)[C@H](Cc1ccc(O)cc1)NC(=O)[C@@H](N)CO)C(=O)N[C@@H](CSSC[C@H](NC(=O)[C@H](CC(N)=O)NC(=O)[C@H](CCC(=O)O)NC(=O)[C@H](Cc1ccc(O)cc1)NC(=O)[C@H](Cc1ccc(O)cc1)NC(=O)[C@@H](N)CO)C(=O)O)C(=O)O [SEQ ID No. 125, SYYENC SYYENC] (I: H-SYYENC-OH / II: H-SYYENC-OH; disulfide I:6-II:6) | ≤ 50 | –
13 | C[C@H](N)C(=O)N[C@H](Cc1ccc(O)cc1)C(=O)N[C@@H](Cc1ccc(O)cc1)C(=O)N[C@@H](CCC(=O)O)C(=O)N[C@@H](C)C(=O)N[C@@H](CS)C(=O)O [SEQ ID No. 133, AyYEAC] (H-A[dY]YEAC-OH) | ≤ 50 | –
14 | C[C@H](N)C(=O)N[C@H](Cc1ccc(O)cc1)C(=O)N[C@@H](Cc1ccc(O)cc1)C(=O)N[C@@H](CCC(=O)O)C(=O)N[C@@H](C)C(=O)N[C@@H](CSSC[C@H](NC(=O)[C@H](C)NC(=O)[C@H](CCC(=O)O)NC(=O)[C@H](Cc1ccc(O)cc1)NC(=O)[C@@H](Cc1ccc(O)cc1)NC(=O)[C@H](C)N)C(=O)O)C(=O)O [SEQ ID No. 140, AyYEAC AyYEAC] (I: H-A[dY]YEAC-OH / II: H-A[dY]YEAC-OH; disulfide I:6-II:6) | ≤ 50 | –
15 | C[C@H](N)C(=O)N[C@@H](Cc1ccc(O)cc1)C(=O)N[C@@H](Cc1ccc(O)cc1)C(=O)NCC(=O)N[C@@H](Cc1ccc(O)cc1)C(=O)N[C@@H](CC(N)=O)C(=O)N[C@@H](CSSC[C@H](NC(=O)[C@H](CC(N)=O)NC(=O)[C@H](Cc1ccc(O)cc1)NC(=O)CNC(=O)[C@H](Cc1ccc(O)cc1)NC(=O)[C@H](Cc1ccc(O)cc1)NC(=O)[C@H](C)N)C(=O)O)C(=O)O [SEQ ID No. 144, AYYGYNC AYYGYNC] (I: H-AYYGYNC-OH / II: H-AYYGYNC-OH; disulfide I:7-II:7) | ≤ 50 | –
16 | C[C@H](N)C(=O)N[C@H](Cc1ccc(O)cc1)C(=O)N[C@@H](Cc1ccc(O)cc1)C(=O)NCC(=O)N[C@@H](C)C(=O)N[C@@H](CSSC[C@H](NC(=O)[C@H](C)NC(=O)CNC(=O)[C@H](Cc1ccc(O)cc1)NC(=O)[C@@H](Cc1ccc(O)cc1)NC(=O)[C@H](C)N)C(=O)O)C(=O)O [SEQ ID No. 150, AyYGAC AyYGAC] (I: H-A[dY]YGAC-OH / II: H-A[dY]YGAC-OH; disulfide I:6-II:6) | ≤ 50 | –

Row | Compound | IC50 [1] [µM] | also measured
17 | C[C@H](N)C(=O)N[C@H](Cc1ccc(O)cc1)C(=O)N[C@@H](Cc1ccc(O)cc1)C(=O)N[C@@H](CCC(=O)O)C(=O)N[C@@H](CC(N)=O)C(=O)N[C@@H](CSSC[C@H](NC(=O)[C@H](CC(N)=O)NC(=O)[C@H](CCC(=O)O)NC(=O)[C@H](Cc1ccc(O)cc1)NC(=O)[C@@H](Cc1ccc(O)cc1)NC(=O)[C@H](C)N)C(=O)O)C(=O)O [SEQ ID No. 154, AyYENC AyYENC] (I: H-A[dY]YENC-OH / II: H-A[dY]YENC-OH; disulfide I:6-II:6) | ≤ 50 | –
18 | AYFGPC [SEQ ID No. 142, AYFGPC] | ≤ 50 | –
19 | Ac-EGYYGAYGVYA [SEQ ID No. 9, [Ac]EGYYGAYGVYA] | ≤ 50 | –
20 | Ac-EGYYGNAGVAA [SEQ ID No. 15, [Ac]EGYYGNAGVAA] | ≤ 50 | –
21 | Ac-EGYYGNYGAAA [SEQ ID No. 41, [Ac]EGYYGNYGAAA] | ≤ 50 | –
22 | Ac-EGYYGNYGAYA [SEQ ID No. 42, [Ac]EGYYGNYGAYA] | ≤ 50 | –
23 | Ac-EGYYGNYGGYA [SEQ ID No. 43, [Ac]EGYYGNYGGYA] | ≤ 50 | –
24 | Ac-EGYYGNYGVAA [SEQ ID No. 12, [Ac]EGYYGNYGVAA] | ≤ 50 | –
25 | Ac-EGYYGNYGVY [SEQ ID No. 22, [Ac]EGYYGNYGVY] | ≤ 50 | –
26 | Ac-EGYYGNYGVYA [SEQ ID No. 4, [Ac]EGYYGNYGVYA] | – | IC50 [1, 3]: ≤ 50 µM
27 | Ac-YYGNYGVYA [SEQ ID No. 45, [Ac]YYGNYGVYA] | ≤ 50 | –
28 | CGGEGYYGNYGVYA [SEQ ID No. 1, peptide from anti-α4 integrin antibody 21/6 with CGG linker, conjugated to carrier protein] | – | adhesion of Jurkat cells to immobilized peptide conjugate [2]: bound equally well
29 | CGGEILDVPST [SEQ ID No. 2, fibronectin peptide described by Wayner, positive control, conjugated to carrier protein, reference compound] | – | adhesion of Jurkat cells to immobilized peptide conjugate [2]: bound equally well
30 | EGYYGNYGVY [SEQ ID No. 17, EGYYGNYGVY] | ≤ 50 | –
31 | STLTMNPVSF [SEQ ID No. 40, STLTMNPVSF] | ≤ 50 | –
32 | SYYENC [SEQ ID No. 124, SYYENC] | ≤ 50 | –
